# Test results reported in PMC7156724, “Potent BRD4 inhibitor suppresses cancer cell-macrophage interaction” (Nature Communications, 2020).
# Where “and” joins values, the source holds several entries; their conditions need not be identical. Identical values can stand only once.
# System: NCI-H211 small cell lung cancer (SCLC) cells
# Experiment: AlamarBlue assay, NCI-H211
# Format: cell-based
# Details: Fig.1e; concentration 0.0169701; replicates
# Procedure: (§1) 3. AlamarBlue assay. AlamarBlue was made by resazurin sodium salt (Sigma, Cat
# (§2) # 199303) dissolved in PBS.
# (§3) NCI-H211, MDA-MB231 and A375 cells were plated in 96-well plates at approximately 30% confluence and left overnight to adhere. In the following day, […]
# (§4) of treatment, 10 μl AlamarBlue reagent (0.3 mg/ml) was added to each well, and after 18h, the florescence intensity in each well was measured using a top-reading fluorescent plate reader with excitation at 530 nm and emission at 590 nm. […]
row,Compound,"Cellular activity in SCLCs (H211), alamarBlue"
1,Cc1nnn(C)c1-c1cnc2c3cc4cnn(C)c4cc3n([C@H](c3ccccc3)C3CCOCC3)c2c1 [NHWD-850],0.35 and 1.87
2,Cc1nnn(C)c1-c1cnc2c3c4c(ccc3n([C@H](c3ccccc3)C3CCOCC3)c2c1)cnn4C [NHWD-860],1.74 and 11.45

# Same assay, conditions: Fig.1e; concentration 0.0398488; replicates
row,Compound,"Cellular activity in SCLCs (H211), alamarBlue"
1,Cc1nnn(C)c1-c1cnc2c3cc4cnn(C)c4cc3n([C@H](c3ccccc3)C3CCOCC3)c2c1 [NHWD-850],0.32 and 1.84
2,Cc1nnn(C)c1-c1cnc2c3c4c(ccc3n([C@H](c3ccccc3)C3CCOCC3)c2c1)cnn4C [NHWD-860],4.56 and 9.08

# Same assay, conditions: Fig.1e; concentration 0.137272; replicates
row,Compound,"Cellular activity in SCLCs (H211), alamarBlue"
1,Cc1nnn(C)c1-c1cnc2c3cc4cnn(C)c4cc3n([C@H](c3ccccc3)C3CCOCC3)c2c1 [NHWD-850],0.23 and -0.84
2,Cc1nnn(C)c1-c1cnc2c3c4c(ccc3n([C@H](c3ccccc3)C3CCOCC3)c2c1)cnn4C [NHWD-860],4.2 and 14.84

# Same assay, conditions: Fig.1e; concentration 0.614394; replicates
row,Compound,"Cellular activity in SCLCs (H211), alamarBlue"
1,Cc1nnn(C)c1-c1cnc2c3cc4cnn(C)c4cc3n([C@H](c3ccccc3)C3CCOCC3)c2c1 [NHWD-850],7.16 and 14.38
2,Cc1nnn(C)c1-c1cnc2c3c4c(ccc3n([C@H](c3ccccc3)C3CCOCC3)c2c1)cnn4C [NHWD-860],15.53 and 29.79

# Same assay, conditions: Fig.1e; concentration 1.09152; replicates
row,Compound,"Cellular activity in SCLCs (H211), alamarBlue"
1,Cc1nnn(C)c1-c1cnc2c3cc4cnn(C)c4cc3n([C@H](c3ccccc3)C3CCOCC3)c2c1 [NHWD-850],35.94 and 34.48
2,Cc1nnn(C)c1-c1cnc2c3c4c(ccc3n([C@H](c3ccccc3)C3CCOCC3)c2c1)cnn4C [NHWD-860],68.35 and 72.54

# Same assay, conditions: Fig.1e; concentration 1.56864; replicates
row,Compound,"Cellular activity in SCLCs (H211), alamarBlue"
1,Cc1nnn(C)c1-c1cnc2c3cc4cnn(C)c4cc3n([C@H](c3ccccc3)C3CCOCC3)c2c1 [NHWD-850],89.1 and 88.35
2,Cc1nnn(C)c1-c1cnc2c3c4c(ccc3n([C@H](c3ccccc3)C3CCOCC3)c2c1)cnn4C [NHWD-860],88.44 and 89.49

# Same assay, conditions: Fig.1e; concentration 2.04576; replicates
row,Compound,"Cellular activity in SCLCs (H211), alamarBlue"
1,Cc1nnn(C)c1-c1cnc2c3cc4cnn(C)c4cc3n([C@H](c3ccccc3)C3CCOCC3)c2c1 [NHWD-850],90.09
2,Cc1nnn(C)c1-c1cnc2c3c4c(ccc3n([C@H](c3ccccc3)C3CCOCC3)c2c1)cnn4C [NHWD-860],90.64 and 90.52

# Same assay, conditions: Fig.1e; concentration 3; replicates
row,Compound,"Cellular activity in SCLCs (H211), alamarBlue"
1,Cc1nnn(C)c1-c1cnc2c3cc4cnn(C)c4cc3n([C@H](c3ccccc3)C3CCOCC3)c2c1 [NHWD-850],89.78 and 89.22
2,Cc1nnn(C)c1-c1cnc2c3c4c(ccc3n([C@H](c3ccccc3)C3CCOCC3)c2c1)cnn4C [NHWD-860],89.32 and 90.99

# Same assay, conditions: Fig.1e; concentration column prints 2.52288; replicates
row,Compound,"Cellular activity in SCLCs (H211), alamarBlue"
1,Cc1nnn(C)c1-c1cnc2c3cc4cnn(C)c4cc3n([C@H](c3ccccc3)C3CCOCC3)c2c1 [NHWD-850],89.03 and 89.34
2,Cc1nnn(C)c1-c1cnc2c3c4c(ccc3n([C@H](c3ccccc3)C3CCOCC3)c2c1)cnn4C [NHWD-860],89.13 and 90.21

# Same assay, conditions: Homo sapiens, NCI-H211, 72 h, 72 h treatment; nM; read-out: IC50, cellular activity in NCI-H211 (alamarBlue)
row,Compound,IC50 [nM]
1,Cc1nnn(C)c1-c1cnc2c3cc4cnn(C)c4cc3n([C@H](c3ccccc3)C3CCOCC3)c2c1 [NHWD-850],16 ± 1.21
2,Cc1nnn(C)c1-c1cnc2c3c4c(ccc3n([C@H](c3ccccc3)C3CCOCC3)c2c1)cnn4C [NHWD-860],8.06 ± 0.91

# System: MDA-MB231 triple negative breast cancer (TNBC) cells
# Experiment: AlamarBlue assay, MDA-MB231
# Format: cell-based, human
# Details: Fig.1f; concentration 0.15; replicates
# Procedure: as §1, §2, §3, §4
row,Compound,"Cellular activity in TNBCs (MDA-MB231), alamarBlue"
1,Cc1nnn(C)c1-c1cnc2c3cc4cnn(C)c4cc3n([C@H](c3ccccc3)C3CCOCC3)c2c1 [NHWD-850],15.75 and 17.7
2,Cc1nnn(C)c1-c1cnc2c3c4c(ccc3n([C@H](c3ccccc3)C3CCOCC3)c2c1)cnn4C [NHWD-860],14.34 and 13.82

# Same assay, conditions: Fig.1f; concentration 0.6; replicates
row,Compound,"Cellular activity in TNBCs (MDA-MB231), alamarBlue"
1,Cc1nnn(C)c1-c1cnc2c3cc4cnn(C)c4cc3n([C@H](c3ccccc3)C3CCOCC3)c2c1 [NHWD-850],25.28 and 23.6
2,Cc1nnn(C)c1-c1cnc2c3c4c(ccc3n([C@H](c3ccccc3)C3CCOCC3)c2c1)cnn4C [NHWD-860],35.72 and 34.62

# Same assay, conditions: Fig.1f; concentration 1; replicates
row,Compound,"Cellular activity in TNBCs (MDA-MB231), alamarBlue"
1,Cc1nnn(C)c1-c1cnc2c3cc4cnn(C)c4cc3n([C@H](c3ccccc3)C3CCOCC3)c2c1 [NHWD-850],46.11 and 48.16
2,Cc1nnn(C)c1-c1cnc2c3c4c(ccc3n([C@H](c3ccccc3)C3CCOCC3)c2c1)cnn4C [NHWD-860],67.92 and 71.9

# Same assay, conditions: Fig.1f; concentration 1.5; replicates
row,Compound,"Cellular activity in TNBCs (MDA-MB231), alamarBlue"
1,Cc1nnn(C)c1-c1cnc2c3cc4cnn(C)c4cc3n([C@H](c3ccccc3)C3CCOCC3)c2c1 [NHWD-850],71.17 and 69.3
2,Cc1nnn(C)c1-c1cnc2c3c4c(ccc3n([C@H](c3ccccc3)C3CCOCC3)c2c1)cnn4C [NHWD-860],82.83 and 82.68

# Same assay, conditions: Fig.1f; concentration 2; replicates
row,Compound,"Cellular activity in TNBCs (MDA-MB231), alamarBlue"
1,Cc1nnn(C)c1-c1cnc2c3cc4cnn(C)c4cc3n([C@H](c3ccccc3)C3CCOCC3)c2c1 [NHWD-850],82.44 and 82.62
2,Cc1nnn(C)c1-c1cnc2c3c4c(ccc3n([C@H](c3ccccc3)C3CCOCC3)c2c1)cnn4C [NHWD-860],87.1 and 88.94

# Same assay, conditions: Fig.1f; concentration 2.5; replicates
row,Compound,"Cellular activity in TNBCs (MDA-MB231), alamarBlue"
1,Cc1nnn(C)c1-c1cnc2c3cc4cnn(C)c4cc3n([C@H](c3ccccc3)C3CCOCC3)c2c1 [NHWD-850],86.67 and 86.03
2,Cc1nnn(C)c1-c1cnc2c3c4c(ccc3n([C@H](c3ccccc3)C3CCOCC3)c2c1)cnn4C [NHWD-860],87.8 and 87.94

# Same assay, conditions: Fig.1f; concentration 3; replicates
row,Compound,"Cellular activity in TNBCs (MDA-MB231), alamarBlue"
1,Cc1nnn(C)c1-c1cnc2c3cc4cnn(C)c4cc3n([C@H](c3ccccc3)C3CCOCC3)c2c1 [NHWD-850],88.63 and 88.4
2,Cc1nnn(C)c1-c1cnc2c3c4c(ccc3n([C@H](c3ccccc3)C3CCOCC3)c2c1)cnn4C [NHWD-860],90.46 and 89.59

# Same assay, conditions: Fig.1f; concentration -0.3; replicates
row,Compound,"Cellular activity in TNBCs (MDA-MB231), alamarBlue"
1,Cc1nnn(C)c1-c1cnc2c3cc4cnn(C)c4cc3n([C@H](c3ccccc3)C3CCOCC3)c2c1 [NHWD-850],7.16 and 12.83
2,Cc1nnn(C)c1-c1cnc2c3c4c(ccc3n([C@H](c3ccccc3)C3CCOCC3)c2c1)cnn4C [NHWD-860],5.89 and 8.33

# Same assay, conditions: Fig.1f; concentration -0.9; replicates
row,Compound,"Cellular activity in TNBCs (MDA-MB231), alamarBlue"
1,Cc1nnn(C)c1-c1cnc2c3cc4cnn(C)c4cc3n([C@H](c3ccccc3)C3CCOCC3)c2c1 [NHWD-850],4.44 and 11.66
2,Cc1nnn(C)c1-c1cnc2c3c4c(ccc3n([C@H](c3ccccc3)C3CCOCC3)c2c1)cnn4C [NHWD-860],3.7 and 7.12

# Same assay, conditions: Homo sapiens, MDA-MB-231, 72 h, 72 h treatment; nM; read-out: IC50, cellular activity in MDA-MB231 (alamarBlue)
row,Compound,IC50 [nM]
1,Cc1nnn(C)c1-c1cnc2c3cc4cnn(C)c4cc3n([C@H](c3ccccc3)C3CCOCC3)c2c1 [NHWD-850],14.5 ± 1.16
2,Cc1nnn(C)c1-c1cnc2c3c4c(ccc3n([C@H](c3ccccc3)C3CCOCC3)c2c1)cnn4C [NHWD-860],7.08 ± 0.85

# Target: T1, BRD4 (BD1+BD2) (Homo sapiens, UniProt O60885)
# T1 construct: purchased BPS 32612
# Experiment: BRD4 (BD1+BD2) TR-FRET binding assay
# Details: Fig.1d; concentration(nM) 0.0021442; replicates
# Excerpt: 2. BRD4 binding assay. The inhibitory effects of NHWD-530, NHWD-540, NHWD- […]
# (BPS, Cat # 32612) per manufacturer’s instructions. […]
row,Compound,Biochemical activity against BRD4 (BD1 + BD2)
1,Cc1nnn(C)c1-c1cnc2c3cc4cnn(C)c4cc3n([C@H](c3ccccc3)C3CCOCC3)c2c1 [NHWD-850],0.1541 and 1.269
2,Cc1nnn(C)c1-c1cnc2c3c4c(ccc3n([C@H](c3ccccc3)C3CCOCC3)c2c1)cnn4C [NHWD-860],1.269 and 4.138

# Same assay, conditions: Fig.1d; concentration(nM) 0.061236; replicates
row,Compound,Biochemical activity against BRD4 (BD1 + BD2)
1,Cc1nnn(C)c1-c1cnc2c3cc4cnn(C)c4cc3n([C@H](c3ccccc3)C3CCOCC3)c2c1 [NHWD-850],12.3903 and 11.5366
2,Cc1nnn(C)c1-c1cnc2c3c4c(ccc3n([C@H](c3ccccc3)C3CCOCC3)c2c1)cnn4C [NHWD-860],4.399 and 1.862

# Same assay, conditions: Fig.1d; concentration(nM) 0.103; replicates
row,Compound,Biochemical activity against BRD4 (BD1 + BD2)
1,Cc1nnn(C)c1-c1cnc2c3cc4cnn(C)c4cc3n([C@H](c3ccccc3)C3CCOCC3)c2c1 [NHWD-850],4.399 and 8.952
2,Cc1nnn(C)c1-c1cnc2c3c4c(ccc3n([C@H](c3ccccc3)C3CCOCC3)c2c1)cnn4C [NHWD-860],3 and 0.4387

# Same assay, conditions: Fig.1d; concentration(nM) 0.59176; replicates
row,Compound,Biochemical activity against BRD4 (BD1 + BD2)
1,Cc1nnn(C)c1-c1cnc2c3cc4cnn(C)c4cc3n([C@H](c3ccccc3)C3CCOCC3)c2c1 [NHWD-850],7.837 and 3
2,Cc1nnn(C)c1-c1cnc2c3c4c(ccc3n([C@H](c3ccccc3)C3CCOCC3)c2c1)cnn4C [NHWD-860],12.3903 and 19.5044

# Same assay, conditions: Fig.1d; concentration(nM) 1.19382; replicates
row,Compound,Biochemical activity against BRD4 (BD1 + BD2)
1,Cc1nnn(C)c1-c1cnc2c3cc4cnn(C)c4cc3n([C@H](c3ccccc3)C3CCOCC3)c2c1 [NHWD-850],31.456 and 32.5943
2,Cc1nnn(C)c1-c1cnc2c3c4c(ccc3n([C@H](c3ccccc3)C3CCOCC3)c2c1)cnn4C [NHWD-860],74.9941 and 70.1565

# Same assay, conditions: Fig.1d; concentration(nM) 1.79588; replicates
row,Compound,Biochemical activity against BRD4 (BD1 + BD2)
1,Cc1nnn(C)c1-c1cnc2c3cc4cnn(C)c4cc3n([C@H](c3ccccc3)C3CCOCC3)c2c1 [NHWD-850],96.9054 and 95.198
2,Cc1nnn(C)c1-c1cnc2c3c4c(ccc3n([C@H](c3ccccc3)C3CCOCC3)c2c1)cnn4C [NHWD-860],100.036 and 99.751

# Same assay, conditions: Fig.1d; concentration(nM) 2.39794; replicates
row,Compound,Biochemical activity against BRD4 (BD1 + BD2)
1,Cc1nnn(C)c1-c1cnc2c3cc4cnn(C)c4cc3n([C@H](c3ccccc3)C3CCOCC3)c2c1 [NHWD-850],100.036 and 100.889
2,Cc1nnn(C)c1-c1cnc2c3c4c(ccc3n([C@H](c3ccccc3)C3CCOCC3)c2c1)cnn4C [NHWD-860],101.174 and 100.605

# Same assay, conditions: Fig.1d; concentration(nM) 3; replicates
row,Compound,Biochemical activity against BRD4 (BD1 + BD2)
1,Cc1nnn(C)c1-c1cnc2c3cc4cnn(C)c4cc3n([C@H](c3ccccc3)C3CCOCC3)c2c1 [NHWD-850],99.751 and 100.889
2,Cc1nnn(C)c1-c1cnc2c3c4c(ccc3n([C@H](c3ccccc3)C3CCOCC3)c2c1)cnn4C [NHWD-860],100.889 and 100.32

# Same assay, conditions: average IC50; nM; read-out: IC50, biochemical activity against BRD4 (BD1 + BD2)
row,Compound,IC50 [nM]
1,Cc1nnn(C)c1-c1cnc2c3cc4cnn(C)c4cc3n([C@H](c3ccccc3)C3CCOCC3)c2c1 [NHWD-850],20.6 ± 1.31
2,Cc1nnn(C)c1-c1cnc2c3c4c(ccc3n([C@H](c3ccccc3)C3CCOCC3)c2c1)cnn4C [NHWD-860],9.33 ± 0.97
